Active and inactive are the calls of the source.
How the values were obtained:
[1] = molecular target: T1, Aminopeptidase N (Plasmodium falciparum FcB1/Columbia, UniProt O96935); experiment: P. falciparum M1AAP inhibitors, biochemical, fluorogenic H-Leu-NHMec substrate, 1536-well (AID 1445); parameters: species or system Plasmodium falciparum 3D7, 3D7
T1 sequence (O96935 whole entry): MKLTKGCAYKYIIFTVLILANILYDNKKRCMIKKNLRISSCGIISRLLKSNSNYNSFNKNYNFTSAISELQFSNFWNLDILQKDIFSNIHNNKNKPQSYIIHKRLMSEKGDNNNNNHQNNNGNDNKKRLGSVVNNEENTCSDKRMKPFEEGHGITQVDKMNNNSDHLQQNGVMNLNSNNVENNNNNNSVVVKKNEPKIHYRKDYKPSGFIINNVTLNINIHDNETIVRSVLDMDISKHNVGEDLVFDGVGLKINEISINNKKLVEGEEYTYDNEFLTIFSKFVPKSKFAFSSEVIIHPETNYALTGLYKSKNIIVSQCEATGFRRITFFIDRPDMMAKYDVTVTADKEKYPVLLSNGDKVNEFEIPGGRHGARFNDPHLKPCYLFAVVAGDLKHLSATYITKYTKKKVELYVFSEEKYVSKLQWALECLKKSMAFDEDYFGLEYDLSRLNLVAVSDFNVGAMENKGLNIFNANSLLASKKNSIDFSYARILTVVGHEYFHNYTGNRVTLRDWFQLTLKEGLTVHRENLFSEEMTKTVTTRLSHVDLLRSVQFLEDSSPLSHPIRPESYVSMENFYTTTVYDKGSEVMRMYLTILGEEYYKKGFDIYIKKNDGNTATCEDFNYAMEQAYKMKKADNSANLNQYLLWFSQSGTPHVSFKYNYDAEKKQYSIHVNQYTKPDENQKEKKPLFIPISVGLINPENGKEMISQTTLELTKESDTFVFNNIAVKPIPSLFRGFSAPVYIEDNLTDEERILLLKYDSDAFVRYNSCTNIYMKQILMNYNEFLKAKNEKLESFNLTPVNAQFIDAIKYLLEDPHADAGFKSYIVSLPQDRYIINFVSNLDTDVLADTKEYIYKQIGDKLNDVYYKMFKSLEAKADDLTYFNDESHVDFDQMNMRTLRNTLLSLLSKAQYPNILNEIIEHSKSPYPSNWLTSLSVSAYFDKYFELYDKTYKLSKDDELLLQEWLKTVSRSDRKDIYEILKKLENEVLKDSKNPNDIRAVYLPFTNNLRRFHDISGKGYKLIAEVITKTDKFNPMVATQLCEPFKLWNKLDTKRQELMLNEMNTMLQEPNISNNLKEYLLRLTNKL

[2] = molecular target: T2, Short transient receptor potential channel 4 (Mus musculus, UniProt Q9QUQ5); experiment: mouse TRPC4 channel activators, dose response, cell-based, HEK293 TRPC4/mu-opioid, Fluo-4 calcium (AID 434937); type: functional
T2 sequence (Q9QUQ5 whole entry): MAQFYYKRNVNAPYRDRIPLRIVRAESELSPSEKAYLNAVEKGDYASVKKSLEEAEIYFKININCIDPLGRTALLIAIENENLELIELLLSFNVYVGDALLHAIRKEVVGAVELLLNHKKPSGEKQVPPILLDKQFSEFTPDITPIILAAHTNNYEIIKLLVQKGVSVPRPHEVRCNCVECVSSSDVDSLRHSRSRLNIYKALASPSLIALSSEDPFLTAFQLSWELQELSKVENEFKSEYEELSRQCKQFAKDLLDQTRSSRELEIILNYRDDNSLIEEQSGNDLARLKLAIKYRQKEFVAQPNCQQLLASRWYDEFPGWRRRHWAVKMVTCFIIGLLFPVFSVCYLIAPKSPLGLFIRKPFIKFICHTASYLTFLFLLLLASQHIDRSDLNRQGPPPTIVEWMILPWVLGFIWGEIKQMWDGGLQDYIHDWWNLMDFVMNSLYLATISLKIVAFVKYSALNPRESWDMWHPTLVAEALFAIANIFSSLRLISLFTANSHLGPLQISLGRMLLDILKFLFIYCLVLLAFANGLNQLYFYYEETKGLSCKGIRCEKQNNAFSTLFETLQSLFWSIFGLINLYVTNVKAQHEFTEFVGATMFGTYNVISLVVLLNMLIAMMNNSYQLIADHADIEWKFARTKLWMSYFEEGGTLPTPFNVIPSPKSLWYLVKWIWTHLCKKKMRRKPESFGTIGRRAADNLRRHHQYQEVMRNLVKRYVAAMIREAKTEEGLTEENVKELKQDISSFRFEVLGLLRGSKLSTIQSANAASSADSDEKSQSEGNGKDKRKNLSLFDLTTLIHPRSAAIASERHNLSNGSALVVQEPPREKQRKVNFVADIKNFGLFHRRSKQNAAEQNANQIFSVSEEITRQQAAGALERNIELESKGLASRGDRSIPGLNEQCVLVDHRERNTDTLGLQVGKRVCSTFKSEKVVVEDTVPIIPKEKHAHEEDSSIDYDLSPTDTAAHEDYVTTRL

[3] = molecular target: T3, Calpain-2 catalytic subunit (Sus scrofa, UniProt P43367); experiment: pig calpain II inhibitor potency, dose response, biochemical, fluorogenic peptide substrate (AID 1420); type: functional
T3 sequence (P43367 whole entry): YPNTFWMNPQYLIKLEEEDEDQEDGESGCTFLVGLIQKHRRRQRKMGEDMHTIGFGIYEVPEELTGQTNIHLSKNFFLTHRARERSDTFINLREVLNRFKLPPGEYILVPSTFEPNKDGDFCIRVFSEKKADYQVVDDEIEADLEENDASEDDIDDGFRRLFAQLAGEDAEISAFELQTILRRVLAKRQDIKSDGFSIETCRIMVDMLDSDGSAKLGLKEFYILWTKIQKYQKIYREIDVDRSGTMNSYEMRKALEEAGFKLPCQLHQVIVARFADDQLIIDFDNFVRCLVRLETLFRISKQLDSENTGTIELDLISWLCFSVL

[4] = Luminescence Cell-Based Dose Retest to Confirm Inhibitors of Cancer Stem Cells. [Related pubchem assays (depositor defined):AID2717, AID2721]; type: functional; settings: Homo sapiens
[5] = intracellular Trypanosoma cruzi inhibitors in host cells – cell-based, plate reader, cherry-pick samples, set 3, dose response (AID 651818); type: functional;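 also: compounds incubated with infected cells for about four days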
[6] = molecular target: Genome polyprotein (dengue virus type 2, UniProt P29990); experiment: Dengue-2 NS5 methyltransferase inhibitors, primary screen, biochemical, confirmation dose response (AID 588689); type: functional
Chain of Genome polyprotein (P29990 2492-3391 limits assumed): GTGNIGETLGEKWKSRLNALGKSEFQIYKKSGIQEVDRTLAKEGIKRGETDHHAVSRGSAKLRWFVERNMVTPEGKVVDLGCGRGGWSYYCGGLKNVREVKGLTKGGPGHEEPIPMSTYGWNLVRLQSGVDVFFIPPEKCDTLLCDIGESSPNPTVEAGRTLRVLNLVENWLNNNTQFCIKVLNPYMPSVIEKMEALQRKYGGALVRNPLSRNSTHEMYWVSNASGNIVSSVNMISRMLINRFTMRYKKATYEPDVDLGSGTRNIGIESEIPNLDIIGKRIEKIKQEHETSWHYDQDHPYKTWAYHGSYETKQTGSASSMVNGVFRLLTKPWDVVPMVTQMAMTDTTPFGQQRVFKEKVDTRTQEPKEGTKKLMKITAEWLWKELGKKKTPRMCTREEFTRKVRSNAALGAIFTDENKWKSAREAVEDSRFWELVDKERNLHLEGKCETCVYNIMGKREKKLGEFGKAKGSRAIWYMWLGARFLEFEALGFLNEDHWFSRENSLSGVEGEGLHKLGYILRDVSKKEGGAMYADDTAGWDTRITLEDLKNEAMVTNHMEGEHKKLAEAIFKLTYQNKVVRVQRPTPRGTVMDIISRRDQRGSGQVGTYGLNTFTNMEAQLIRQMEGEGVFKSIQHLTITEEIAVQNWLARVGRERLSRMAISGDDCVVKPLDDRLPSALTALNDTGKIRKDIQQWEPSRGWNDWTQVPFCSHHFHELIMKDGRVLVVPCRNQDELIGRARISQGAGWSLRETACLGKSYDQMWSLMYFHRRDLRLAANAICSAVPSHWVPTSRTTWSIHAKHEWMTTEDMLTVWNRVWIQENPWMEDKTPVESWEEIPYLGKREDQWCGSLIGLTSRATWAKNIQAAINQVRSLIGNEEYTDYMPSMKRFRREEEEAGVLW

Q: With `COc1cc(OC)c(NS(=O)(=O)c2ccc(Cl)c(C(=O)OC(C)C(=O)N3CCCC3)c2)cc1Cl` (stereo unspecified) as the molecule, how does the IC50 [1] read?
A: Its IC50 is 38.6 µM (active).

Q: With `CCN1CCN(c2ccc(S(=O)(=O)N3CCOCC3)cc2NC(=O)C(C)Oc2cccc(Cl)c2)CC1` (stereo unspecified) as the molecule, how does the EC50 [2] read?
A: Its EC50 is 5.96 µM (active).

Q: Which results are given for `Oc1ccc(C[C@@H]2CN=C(S)N2CCCCC2CCCCC2)cc1`?
A: IC50 [3]: 12.2 µM (not active); AC50 [4]: 5.41 µM (active)

Q: With `C[C@H](CO)N1C[C@H](C)[C@H](CN(C)S(=O)(=O)c2ccccc2)Oc2ccc(NC(=O)Nc3ccc(C(F)(F)F)cc3)cc2C1=O` as the molecule, how does the AC50 [5] read?
A: The AC50 was 1.62 µM (active).

Q: For `O=C(O)CN1C(=O)/C(=C\c2ccccc2OCc2ccccc2)SC1=S`, which IC50 [6] is on record?
A: The IC50 was 35.8 µM (active).

Q: With `CCOC(=O)NN1C(=O)c2ccccc2NC12CCCC2` as the molecule, how does the IC50 [1] read?
A: The IC50 was 32.6 µM (active).

Q: Which AC50 [5] does the source give for `C[C@H]1CN([C@@H](C)CO)C(=O)Cc2cc(NC(=O)c3ccncc3)ccc2O[C@H]1CN(C)Cc1ccc(-c2ccccc2)cc1` here?
A: Its AC50 is 1.63 µM (active).

Q: For `C[C@H]1CN([C@@H](C)CO)C(=O)Cc2cc(NC(=O)Cc3cn(C)c4ccccc34)ccc2O[C@H]1CN(C)Cc1ccc(C(F)(F)F)cc1`, which AC50 [5] is on record?
A: Its AC50 is 1.81 µM (active).

Q: Which EC50 [2] does the source give for `Cc1ccc(/C=N\NC(=O)C2COc3cc4ccccc4cc3O2)o1` (stereo unspecified) here?
A: Its EC50 is 1.88 µM (active).

Q: Which AC50 [5] does the source give for `C[C@@H]1CN([C@H](C)CO)C(=O)Cc2cc(N(C)C)ccc2O[C@H]1CN(C)Cc1ccc2c(c1)OCO2` here?
A: The AC50 was 6.22 µM (active).

Q: With `CCOc1cc(/C=N/NC2=NC(=O)C(CC(=O)O)S2)ccc1OS(=O)(=O)c1ccc(C)cc1` (stereo unspecified) as the molecule, how does the IC50 [1] read?
A: Its IC50 is 47.8 µM (active).

Q: With `COc1ccc(C(CNC(=O)CN2C(=O)NC3(CCCC3)C2=O)N(C)C)cc1` (stereo unspecified) as the molecule, how does the EC50 [2] read?
A: Its EC50 is 3.76 µM (active).

Q: For `O=C1c2ccccc2C(=O)N1CCCCCc1nc(-c2ccccc2)no1`, which IC50 [3] is on record?
A: The IC50 was 3.34 µM (not active).

Q: For `Cc1c(O)ccc(C(=O)CN2C(=O)c3ccccc3C2=O)c1O`, which IC50 [3] is on record?
A: The IC50 was 7.96 µM (not active).

Q: With `Cc1ccc(S(=O)(=O)Oc2ccccc2C=C2C(=O)NC(=O)NC2=O)cc1` as the molecule, how does the IC50 [6] read?
A: Its IC50 is 36.8 µM (active).

Source: ChEMBL document CHEMBL1201862, “PubChem BioAssay data set” (2004)
